According to US20240324679A1, “METHODS AND DEVICES FOR CONTROLLING THE TEMPERATURE OF A DRUG FOIL SUBSTRATE TO GENERATE AN AEROSOL” (ALEXZA PHARMACEUTICALS, INC., priority 2021, published 2024):
Counter-ions that a name gives are not always drawn.

What was measured:
[1] = Vaporization of apomorphine HCl film from drug foil substrate, Heat Source 1 (testing electric heating, Device 1); format: physicochemical; details: 0.44 mg/cm^2 coating, airflow ~30 L/min
Description: Device 1 has an air inlet and air outlet and a 1 F capacitor (Phoenix Gold Titanium series) to be discharged to resistively heat the substrate (<0.2 sec) and facilitate rapid aerosol formation with a cross-foil airflow of ˜ 30 L/min. Calibration for temperature versus applied voltage was determined with a thermocouple spot-welded to the foil surface.
A 12.7×63.5, 0.127 mm 304-stainless steel drug foil substrate attached to Device 1 with connexions to receive electrical power from an electrical source. Devices were actuated with a constant airflow of ˜ 30 L/min. An example is depicted in FIG. 1D.
(§1) […] was coated on 2.27 cm^2 (0.44 mg/cm^2) on the drug foil substrate of Heat Source 1 or 2 and heated to the temperatures specified in the table below.

[2] = Vaporization of apomorphine HCl film from drug foil substrate, Heat Source 2 (chemical heat package, Device 2); format: physicochemical; details: 0.44 mg/cm^2 coating, airflow ~30 L/min
Source text: A 100 mm long device such as that in FIG. 1B, the same shape as that of the Adasuve® device, moulded from PermaStat® resin (antistatic material).
A 47.2×47.2×0.38 mm 304-stainless steel drug foil substrate is attached to a chemical heat package connected to Device 2.
In chemical heat package devices, an exothermic thermite reaction from the reactants inside of the heat package rapidly propagated (˜ 0.1 s) and generated heat nearly instantaneously, which vaporized the drug film. The reactants are calibrated to heat the drug foil substrate to a given temperature. Upper and lower housings were welded prior to vaporization. Devices were actuated with a constant airflow of ˜ 30 L/min.
as §1

[3] = Heat Source 1, substrate temp. 260 °C
[4] = Heat Source 1, substrate temp. 290 °C
[5] = Heat Source 1, substrate temp. 310 °C
[6] = Heat Source 1, substrate temp. 320 °C
[7] = Heat Source 2, substrate temp. 310 °C
[8] = Heat Source 2, substrate temp. 330 °C

- % Vaporization [1, 3]: 40.57 ± 9.34%
- Aerosol Purity (%) [1, 3]: 98.35 ± 0.64%
- % Vaporization [1, 4]: 58.03 ± 12.15%
- Aerosol Purity (%) [1, 4]: 96.45 ± 0.93%
- % Vaporization [1, 5]: 59.69 ± 0.34%
- Aerosol Purity (%) [1, 5]: 94.92 ± 1.12%
- % Vaporization [1, 6]: 66.14 ± 0.95%
- Aerosol Purity (%) [1, 6]: 90.89 ± 0.78%
- % Vaporization [2, 7]: 48.32 ± 16.77%
- Aerosol Purity (%) [2, 7]: 91.71 ± 1.62%
- % Vaporization [2, 8]: 61.58 ± 2.07%
- Aerosol Purity (%) [2, 8]: 87.51 ± 0.18%
- % Vaporization ([2]; Heat Source 2, substrate temp. 400 °C): 49.07 ± 1.12%
SMILES: CN1CCc2cccc3c2[C@H]1Cc1ccc(O)c(O)c1-3 [apomorphine HCl]
